Data published in patent publication US20240041042A1, “1-(PYRIDYL)-5-AZINYLPYRAZOLE DERIVATIVES, AND THEIR USE FOR CONTROL OF UNDESIRED PLANT GROWTH” (Bayer Aktiengesellschaft, priority 2020, published 2024).
Read-outs that look alike come from different tables or passages of the source.

Assays:
Format in all cases: in vivo
[1] = tested on: Amaranthus retroflexus (AMARE); experiment: Pre-emergence herbicidal action against AMARE; conditions: visual scoring after about 3 weeks vs untreated controls
Procedure, shortened: (§1)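 Pre-emergence soil-surface spray of compound, formulated as wettable powder or emulsion concentrate, in aqueous suspension or emulsion with 0.5% additive (600 l/ha; rate 320 g/ha or less). Activity rated visually after roughly 3 weeks in the greenhouse as a percentage of untreated controls, 0% meaning no difference.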

Avena fatua (AVEFA) [2] = experiment: Pre-emergence herbicidal action against AVEFA; conditions: 320 g/ha, visual scoring after about 3 weeks vs untreated controls
Procedure, shortened: as §1

[3] = tested on: Echinochloa crus-galli (ECHCG); experiment: Pre-emergence herbicidal action against ECHCG; conditions: dosage 320 g/ha
Procedure, shortened: as §1

[4] = tested on: Polygonum convolvulus (POLCO); experiment: Pre-emergence herbicidal action against POLCO; conditions: dosage 320 g/ha
Procedure, shortened: as §1

Setaria viridis (SETVI) [5] = experiment: Pre-emergence herbicidal action against SETVI; conditions: dosage 320 g/ha
Procedure, shortened: as §1

[6] = tested on: Verconica persica (VERPE); experiment: Pre-emergence herbicidal action against VERPE; conditions: dosage 320 g/ha
Procedure, shortened: as §1

Viola tricolor (VIOTR) [7] = experiment: Pre-emergence herbicidal action against VIOTR
Procedure, shortened: as §1

Oryza sativa (ORYSA) [8] = conditions: pre-emergence, crop plant compatibility, in comparison to untreated controls
Procedure, shortened: (§2)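 Scoring: visual, % of untreated control, about 3 weeks after a pre-emergence application to the soil surface. Application used WP or EC formulations diluted in water with 0.5% additive at 600 l/ha; dosage levels are marked by suffixes a, b and c.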

Zea mays (ZEAMX) [9] = conditions: pre-emergence, 80 g/ha, crop plant compatibility, in comparison to untreated controls
Procedure, shortened: as §2

[10] = tested on: Amaranthus retroflexus (AMARE); experiment: Post-emergence herbicidal action against AMARE
Procedure, shortened: (§3)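 Greenhouse plants sprayed at the one-leaf stage, 2–3 weeks after sowing, with WP or EC formulations plus 0.5% additive at 600 l/ha water. Activity rated visually after about 3 weeks versus untreated controls (100% = dead, 0% = like control), at 320 g/ha or lower.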

[11] = tested on: Polygonum convolvulus (POLCO); experiment: Post-emergence herbicidal action against POLCO; conditions: dosage 320 g/ha
Procedure, shortened: as §3

Viola tricolor (VIOTR) [12] = experiment: Post-emergence herbicidal action against VIOTR; conditions: 320 g/ha
Procedure, shortened: as §3

Oryza sativa (ORYSA) [13] = conditions: crop plant compatibility
Procedure, shortened: (§4)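 Percent effect on the crop was judged by eye against untreated controls, where 0% means like control and 100% means dead plants. Plants had been sprayed post-emergence at the one-leaf stage and then kept under optimum greenhouse conditions for about 3 weeks.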

[14] = tested on: Triticum aestivum (TRZAS); conditions: crop plant compatibility, 80 g/ha, effect vs untreated controls
Procedure, shortened: as §4

Zea mays (ZEAMX) [15] = conditions: for Post-emergence action against ZEAMX in %: crop plant compatibility, effect vs untreated controls
Procedure, shortened: as §4

[16] = tested on: Alopecurus myosuroides (ALOMY); experiment: Pre-emergence herbicidal action against ALOMY; conditions: 320 g/ha; scored visually after about 3 weeks; 100% = plants have died
Procedure, shortened: as §1

[17] = tested on: Matricaria inodora (MATIN); experiment: Pre-emergence herbicidal action against MATIN; conditions: dosage 320 g/ha
Procedure, shortened: as §1

[18] = tested on: Abutilon theophrasti (ABUTH); experiment: Post-emergence herbicidal action against ABUTH; conditions: 320 g/ha, visual rating about 3 weeks after treatment vs untreated controls (100% = plants have died, 0% = like control plants)
Procedure, shortened: as §3

[19] = tested on: Alopecurus myosuroides (ALOMY); experiment: Post-emergence herbicidal action against ALOMY; conditions: visual rating about 3 weeks after treatment vs untreated controls (100% = plants have died, 0% = like control plants)
Procedure, shortened: as §3

[20] = tested on: Echinochloa crus-galli (ECHCG); experiment: Post-emergence herbicidal action against ECHCG
Procedure, shortened: as §3

[21] = tested on: Pharbitis purpurea (PHBPU); experiment: Post-emergence herbicidal action against PHBPU
Procedure, shortened: as §3

Setaria viridis (SETVI) [22] = experiment: Post-emergence herbicidal action against SETVI
Procedure, shortened: as §3

[23] = tested on: Verconica persica (VERPE); experiment: Post-emergence herbicidal action against VERPE
Procedure, shortened: as §3

Lolium rigidum (LOLRI) = experiment: Pre-emergence herbicidal action against LOLRI; conditions: dosage 320 g/ha
Procedure, shortened: as §1

[24] = tested on: Pharbitis purpurea (PHBPU); experiment: Pre-emergence herbicidal action against PHBPU; conditions: dosage 320 g/ha
Procedure, shortened: as §1

Avena fatua (AVEFA) [25] = experiment: Post-emergence herbicidal action against AVEFA; conditions: 80 g/ha, visual rating about 3 weeks after treatment
Procedure, shortened: as §3

[26] = 320 g/ha, visual rating about 3 weeks after treatment
[27] = 80 g/ha, effect in comparison to untreated controls

Pre-emergence action against ORYSA in % (Oryza sativa (ORYSA) [8]; 80 g/ha) [%] | Pre-emergence action against ZEAMX in % (Zea mays (ZEAMX) [9]) [%] | Post-emergence action against ORYSA in % (Oryza sativa (ORYSA) [13]; [27]) [%] | Post-emergence action against ZEAMX in % (Zea mays (ZEAMX) [15]; 80 g/ha) [%] | Structure (SMILES) | Pre-emergence action against AMARE in % ([1]; 320 g/ha) [%] | Pre-emergence action against AVEFA in % (Avena fatua (AVEFA) [2]) [%] | Pre-emergence action against ECHCG in % [3] [%] | Pre-emergence action against POLCO in % [4] [%] | Pre-emergence action against SETVI in % (Setaria viridis (SETVI) [5]) [%] | Pre-emergence action against VERPE in % [6] [%] | Pre-emergence action against VIOTR in % (Viola tricolor (VIOTR) [7]; 320 g/ha, Viola tricolor) [%] | Post-emergence action against AMARE in % [10, 26] [%] | Post-emergence action against POLCO in % [11] [%] | Pre-emergence action against ALOMY [16] [%] | Pre-emergence action against MATIN in % [17] [%] | Pre-emergence action against VIOTR in % (Viola tricolor (VIOTR) [7]; dosage 80 g/ha) [%] | Post-emergence action against ECHCG in % ([20]; dosage 80 g/ha) [%] | other results
0 | 0 | 0 | 0 | C=CCNC(=O)COc1nn(-c2ncccc2F)c(-c2ccc(F)nc2)c1Br [Example I-31] | 90 | 80 | 90 | 80 | 90 | 90 | 90 | 80 | 80 |  |  |  |  | Pre-emergence action against ORYSA in % (Oryza sativa (ORYSA) [8]; 320 g/ha): 0%; Post-emergence action against VIOTR in % (Viola tricolor (VIOTR) [12]): 80%; Post-emergence action against ORYSA in % (Oryza sativa (ORYSA) [13]; 320 g/ha, effect in comparison to untreated controls): 10%; Post-emergence action against TRZAS in % [14]: 10%; Post-emergence action against ZEAMX in % (Zea mays (ZEAMX) [15]; 320 g/ha): 0%
20 | 10 | 0 |  | CCOC(=O)CSc1nn(-c2ccccn2)c(-c2cncc(F)c2)c1I [Example I-152] | 100 |  | 90 |  | 90 |  | 90 | 80 | 80 | 80 | 90 | 80 | 80 | Post-emergence action against ABUTH in % [18]: 80%; Post-emergence action against ALOMY in % ([19]; 320 g/ha): 80%; Post-emergence action against AMARE in % ([10]; 80 g/ha, visual rating about 3 weeks after treatment vs untreated controls (100% = plants have died, 0% = like control plants)): 80%; Post-emergence action against ECHCG in % ([20]; dosage 320 g/ha): 80%; Post-emergence action against PHBPU in % ([21]; dosage 80 g/ha): 80%; Post-emergence action against PHBPU in % ([21]; dosage 320 g/ha): 90%; Post-emergence action against SETVI in % (Setaria viridis (SETVI) [22]; dosage 80 g/ha): 80%; Post-emergence action against SETVI in % (Setaria viridis (SETVI) [22]; dosage 320 g/ha): 80%; Post-emergence action against VERPE in % ([23]; 320 g/ha, VERPE): 80%
10 | 10 | 10 | 10 | CCOC(=O)COc1nn(-c2ncccc2Cl)c(-c2ccc(F)nc2)c1Br [Example I-23] | 100 | 90 | 100 | 90 | 100 | 90 | 100 |  |  | 100 | 90 | 90 | 80 | Pre-emergence action against AMARE in % ([1]; 80 g/ha): 90%; Pre-emergence action against LOLRI in % (Lolium rigidum (LOLRI)): 100%; Pre-emergence action against PHBPU in % [24]: 90%; Post-emergence action against ALOMY in % ([19]; 80 g/ha): 90%; Post-emergence action against AVEFA in % (Avena fatua (AVEFA) [25]): 90%; Post-emergence action against VERPE in % ([23]; dosage 80 g/ha): 80%; Post-emergence action against ORYSA in % (Oryza sativa (ORYSA) [13]; 20 g/ha, effect vs untreated controls): 0%; Post-emergence action against ZEAMX in % (crop plant compatibility) (Zea mays (ZEAMX) [15]; 20 g/ha, ZEAMX, effect in comparison to untreated controls): 0%
